Entries after “also recorded” stand apart in the source; their conditions may differ.

The test system of one experiment is ABCA1. Nature of the experiment: ABCA1 up-regulation, luciferase reporter in ABCA1P-LUC HepG2 cells. It is filed as cell-based. As to conditions: Homo sapiens, 18 h, maximum up-regulation fold of luciferase activity versus DMSO, read-out: ABCA1 max. How it is done:
Experiments were conducted to detect whether the compounds of the disclosure can pharmacologically up-regulate the expression of ABCA1 and SR-BI. Firstly, ABCA1P-LUC HepG2 cells or SR-BI-LUC HepG2 cells in logarithmic growth phase were digested, diluted in cell culture medium, and counted. Cells were seeded into 96-well plates at a density of 5×10^5/ml (100 μL of the single-cell suspension per well). After cells fully adhered (about 6 h), the medium containing 10% FBS was removed, and the cells were gently washed with PBS. Serum free MEM-EBSS medium (200 μL per test well) and 2 μL of the compounds to be tested (at a final concentration of 10 μg/mL) were added to each test well, and meanwhile, DMSO at a corresponding concentration was added to the control well. After 18-24 h, the medium was removed. Cell Luciferase activity was measured by a method as described in the Luciferase Assay System. By optimizing the final concentration of DMSO, the treatment time of the compounds on the cells and the number of cells seeded into each well during the screening, the final screening conditions were determined as follows: each well is seeded with 5×10^4 cells, DMSO is added at a final concentration of 1%, and the sample is treated for 18 h.
The ratio of change of luciferase activity is calculated with the following formula: Ratio of change (%)=A/B×100;
wherein A is the luciferase activity (RLU) measured after the compound to be tested is added, and B is the luciferase activity (RLU) measured after the blank control (DMSO) is added. The luciferase activity of cells in each well was measured, and the dose-effect relationship between the concentration of the compound and the ratio of change of the luciferase activity was determined to calculate the EC50.
In general terms: In a reporter assay the amount or activity of a reporter protein is the signal.

The target of another experiment is T1, LXRα (Homo sapiens, UniProt Q13133).
T1 construct: expressed in transfected cells; host or cells: HepG2
T1 sequence (Q13133 209-447 limits assumed): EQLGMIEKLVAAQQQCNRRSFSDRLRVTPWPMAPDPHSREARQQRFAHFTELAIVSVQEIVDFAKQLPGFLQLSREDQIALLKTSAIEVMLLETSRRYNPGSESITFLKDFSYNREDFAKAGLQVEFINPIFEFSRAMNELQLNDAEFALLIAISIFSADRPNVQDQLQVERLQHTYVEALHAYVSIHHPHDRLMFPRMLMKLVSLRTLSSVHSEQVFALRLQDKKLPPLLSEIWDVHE
Nature of the experiment: Nuclear receptor reporter gene transient transfection (pBIND-hLXRs-LBD) in HepG2 cells, LXRα. Format: cell-based. On the procedure: (§1) HepG2 cells in logarithmic growth phase were digested, seeded into the white/clear 96-well plate at a density of 5×10^4 cells/well/100 μL until the cells grew to about 90% confluence and in good condition. 0.5 μL liposome (Lipofectamine® 2000) diluted with blank medium to 25 μL per well and incubated at room temperature for 5 min. The corresponding plasmids DNA (nuclear receptor plasmid:Gal4=1:10) were diluted in blank DMEM medium to 25 μL/well (mixing of two plasmids), then mixed evenly with the diluted liposome, and incubated for 20 min at 37° C. The DNA-liposome complex (50 μL per well) was added with the DMEM complete medium (100 μL per well) and mixed thoroughly to obtain a DNA-liposome complex cell culture. The cell medium was discarded, and replaced with the DNA-liposome complex cell culture (150 μL/well) (37° C., 5% CO2). After 6 h, the DNA-liposome complex cell culture medium was discarded, and 200 μL serum-free DMEM medium containing the compound at an appropriate concentration was added to each test well, and cultured for 18-24 h. The cell Luciferase activity was measured by the method as described in the Luciferase Assay System.

In the next experiment the target is T2, PPARγ (Homo sapiens, UniProt P37231).
T2 construct: expressed in transfected cells; host or cells: HepG2
T2 sequence (P37231 238-503 limits assumed): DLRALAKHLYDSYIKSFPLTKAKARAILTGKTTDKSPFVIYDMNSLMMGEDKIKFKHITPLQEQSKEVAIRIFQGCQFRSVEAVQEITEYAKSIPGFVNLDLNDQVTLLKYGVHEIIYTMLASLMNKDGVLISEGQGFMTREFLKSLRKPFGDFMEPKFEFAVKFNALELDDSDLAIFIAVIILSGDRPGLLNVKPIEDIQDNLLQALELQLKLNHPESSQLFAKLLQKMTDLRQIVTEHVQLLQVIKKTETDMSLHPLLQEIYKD
As to the kind of experiment: Nuclear receptor reporter gene transient transfection (pBIND-hPPARs-LBD) in HepG2 cells, PPARγ. It is filed as cell-based. As to conditions: FIG. 2, result in words. On the procedure:
as §1

The subject of a further experiment is NF-κB signaling pathway. As to the kind of experiment: Western-blot of NF-κB signaling pathway in liver of ApoE−/− mice. It is filed as in vivo. As to conditions: FIG. 7. On the procedure:
(§2) 6-week-old male C57/BL6 ApoE^−/− mice were fed on normal chaw diet for one week. The mice were randomly divided into three groups (control group, high-fat diet model group, and treatment group, 12 mice per group) according to the body weight. From 7-week-old, the high-fat diet model group and the treatment group were fed on a high fat diet (HFD) (0.15% cholesterol and 20% fat), and the control group was fed on normal chow diet. The treatment group (R3) mice were administered intragastrically with TR3 (5 mg/kg). The control group and the high-fat diet model group mice were intragastrically administered with sodium carboxymethylcellulose (CMC-Na) solution. After 12 weeks of administration, all mice were fasted overnight. The blood sample was taken from the retro-orbital plexus, collected in a EP tube, and then centrifuged for 15 min (2500 rpm). The centrifuged serum (upper layer) was transferred to new EP tubes (divided into two aliquots) and stored at −20° C. for further use. […]
(§3) When animal tissues were used to prepare protein samples, the tissues were firstly homogenized and lysed in the RIPA lysis buffer. […] When cell supernatants were used to prepare protein samples, the supernatants were freeze-dried, needed to be extracted using a protein recovery kit (Applygen, Beijing, China), and then analyzed by western-blot. […]

Another experiment has as its system MAPK signaling pathway. Nature of the experiment: Western-blot of MAPK signaling pathway in ApoE−/− mice. Format: in vivo. As to conditions: FIG. 8. How it is done: as §2, with “use. The mice were fixed, and the skin was cut open along the midline of the abdomen to the neck. The abdominal cavity was cut open to collect the fresh liver tissue. The Liver tissue was put into 3 freezing tubes, and then immediately put into liquid nitrogen for subsequent detection of liver lipid detection and extraction of RNA and protein. The thorax was cut open to expose the heart. The heart was perfused with 10 ml PBS, and then fixed by perfusion with 4% paraformaldehyde solution until the liver turned white. The fixed liver was taken out and placed in a six-well plate containing 4% paraformaldehyde solution for further fixation.” for “use.”
as §3

`c1ccc2c(c1)CN1CCc3c([nH]c4ccccc34)C1=N2` [TR3, 5,7,8,13-tetrahydroindolo[2′,3′:3,4]pyrido[2,1-b]quinazoline]: the maximal fold induction in the experiment on ABCA1 was 2.26. At LXRα (HepG2 cells, reporter gene, 18-24 h), this molecule registered an LXRα max of 1.36. On LXRα (result in words), the LXRα agonist activity entry is “showed agonist activity; also recorded: simultaneously activated PPARα/γ/δ and LXRα/β to a certain extent”. Further, on PPARγ, the “activation of PPARγ” value is “simultaneously activated PPARα/γ/δ and LXRα/β to a certain extent”. Besides, in the experiment with NF-κB signaling pathway, the “expression of p-IκBα” value was “significantly inhibited” and the “expression of p-P65” value is “significantly inhibited”. In addition, in the experiment on MAPK signaling pathway, the “expression of p-ERK” value is “also inhibited”, the “expression of p-JNK” value is “also inhibited” and the “expression of p-P38” value was “also inhibited”.

(Values after patent US12590093B2, “Indolo[2′,3′:3,4]pyrido[2,1-b]quinazoline compound and use thereof” (INSTITUTE OF MEDICINAL BIOTECHNOLOGY CHINESE ACADEMY OF …, priority 2019, dated 2026).)
